Results as given in patent publication US10508109B2 (priority 2015, dated 2019).

Tests used:
HCT-116 = assay: Cell-based assay, anti-proliferative activity (Cell Counting Kit-8, 72 hours); details: Homo sapiens; HCT-116 cells, Cell Counting Kit-8, 72 hours; read-out: IC50 (μM) HCT-116
Summary of the method: (§1)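 Seed cells in 96-well plates; add serially diluted inhibitor (1.5625 to 100 micro-M plus vehicle); incubate 72 hours; quantify viable growth by CCK-8 and calculate IC50.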

CCD-18Co = assay: as above; details: Homo sapiens; CCD-18Co cells, Cell Counting Kit-8, 72 hours; read-out: IC50 (μM) CCD-18Co
Summary of the method: as §1

PC14 = assay: as above; details: Homo sapiens, PC-14; PC14 cells, Cell Counting Kit-8, 72 hours; read-out: IC50 (μM) PC14
Summary of the method: as §1

HFL1 = assay: as above; details: Homo sapiens; HFL1 cells, Cell Counting Kit-8, 72 hours; read-out: IC50 (μM) HFL1
Summary of the method: as §1

A549 = assay: as above; details: Homo sapiens; A549 cells, Cell Counting Kit-8, 72 hours; read-out: IC50 (μM) A549
Summary of the method: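 After compound exposure of cells in 96-well plates, growth was measured colorimetrically and converted into IC50 values.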

SUV39H2 = SUV39H2 (Homo sapiens (Human), UniProt Q9H5I1); details: read-out: IC50 (μM) Suv 39H2 assay; enzyme assay
Sequence of SUV39H2 (Q9H5I1 whole entry): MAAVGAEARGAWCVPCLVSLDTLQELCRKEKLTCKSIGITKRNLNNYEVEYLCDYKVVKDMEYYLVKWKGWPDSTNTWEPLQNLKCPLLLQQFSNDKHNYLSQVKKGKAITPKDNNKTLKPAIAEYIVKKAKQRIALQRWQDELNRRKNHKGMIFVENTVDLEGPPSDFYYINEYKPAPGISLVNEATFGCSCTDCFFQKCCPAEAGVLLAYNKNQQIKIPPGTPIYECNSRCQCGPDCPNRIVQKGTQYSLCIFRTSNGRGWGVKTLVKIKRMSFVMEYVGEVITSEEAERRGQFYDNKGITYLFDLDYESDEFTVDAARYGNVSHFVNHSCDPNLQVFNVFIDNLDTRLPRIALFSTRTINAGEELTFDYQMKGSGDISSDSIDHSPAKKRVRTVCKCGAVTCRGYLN

Compound	IC50 (HCT-116) [µM]	IC50 (CCD-18Co) [µM]	IC50 (PC14) [µM]	IC50 (HFL1) [µM]	IC50 (A549) [µM]	IC50 (SUV39H2) [µM]
COc1cc(OC)c(-c2cn3ccc(NC(=O)CCN)cc3n2)cc1Cl [Example 168, 3-amino-N-[2-(5-chloro-2,4-dimethoxyphenyl)imidazo[1,2-a]pyridin-7-yl]-propanamide]	1.4	9.5	6.2	2.7	39	0.0283
COc1cc(OC)c(-c2cn3ccc(N4CCN(S(C)(=O)=O)CC4)cc3n2)cc1Cl [Example 169, 2-(5-chloro-2,4-dimethoxyphenyl)-7-[4-(methylsulfonyl)piperazin-1-yl]imidazo[1,2-a]pyridine]	2.1	2.8	2.2	4.7	1.8	0.0101
CCCS(=O)(=O)N1CCN(c2ccn3cc(-c4cc(Cl)c(OC)cc4OC)nc3c2)CC1 [Example 170, 2-(5-chloro-2,4-dimethoxyphenyl)-7-[4-(propylsulfonyl)piperazin-1-yl]imidazo[1,2-a]pyridine]	2.1	2.6	1.6	1.9	1.7	0.0219
COc1cc(OC)c(-c2cn3ccc(N4CCN(S(=O)(=O)N(C)C)CC4)cc3n2)cc1Cl [Example 171, 4-[2-(5-chloro-2,4-dimethoxyphenyl)imidazo[1,2-a]pyridin-7-yl]-N,N-dimethylpiperazine-1-sulfonamide]	0.94	0.84	2	1.2	0.83	0.0135
CCS(=O)(=O)N1CCN(c2ccn3cc(-c4cc(Cl)c(OC)cc4OC)nc3c2)CC1 [Example 172, 2-(5-chloro-2,4-dimethoxyphenyl)-7-[4-(ethylsulfonyl)piperazin-1-yl]imidazo[1,2-a]pyridine]	1.2	1.8	1.6	1.8	1.9	0.0125
CCS(=O)(=O)NC1CCN(c2ccn3cc(-c4cc(Cl)c(OC)cc4OC)nc3c2)CC1 [Example 173, N-{1-[2-(5-chloro-2,4-dimethoxyphenyl)imidazo[1,2-a]pyridin-7-yl]piperidin-4-yl}ethanesulfonamide]	1.9	0.99	1.6	0.53	1.5	0.00961
CCCS(=O)(=O)NC1CCN(c2ccn3cc(-c4cc(Cl)c(OC)cc4OC)nc3c2)CC1 [Example 174, N-{1-[2-(5-chloro-2,4-dimethoxyphenyl)imidazo[1,2-a]pyridin-7-yl]piperidin-4-yl}propane-1-sulfonamide]	1.8	2	2.3	1.7	3	0.0104
COc1cc(OC)c(-c2cn3ccc(N4CCC(NS(=O)(=O)Cc5ccccc5)CC4)cc3n2)cc1Cl [Example 175, N-{1-[2-(5-chloro-2,4-dimethoxyphenyl)imidazo[1,2-a]pyridin-7-yl]piperidin-4-yl}-1-phenylmethanesulfonamide]	1.5	2	1.8	1.9	2	0.0263
COc1cc(OC)c(-c2cn3ccc(N4CCC(NS(=O)(=O)C(F)(F)F)CC4)cc3n2)cc1Cl [Example 176, N-{1-[2-(5-chloro-2,4-dimethoxyphenyl)imidazo[1,2-a]pyridin-7-yl]piperidin-4-yl}-1,1,1-trifluoromethanesulfonamide]	0.55	0.53	0.75	0.36	0.51	0.0641
COc1cc(OC)c(-c2cn3ccc(N4CCN(S(C)(=O)=O)CC4)nc3n2)cc1Cl [Example 177, 2-(5-chloro-2,4-dimethoxyphenyl)-7-(4-(methylsulfonyl)piperazin-1-yl)-imidazo[1,2-a]pyrimidine]	6	11	2.5	8	3.8	0.0408
COc1cc(OC)c(-c2cn3ccc(N4CCN(S(=O)(=O)C(C)C)CC4)cc3n2)cc1Cl [Example 178, 2-(5-chloro-2,4-dimethoxyphenyl)-7-[4-(isopropylsulfonyl)piperazin-1-yl]imidazo[1,2-a]pyridine]	1.5	2.1	0.74	1.7	1	0.0143
COc1cc(OC)c(-c2cn3ccc(N4CCN(S(=O)(=O)Cc5ccccc5)CC4)cc3n2)cc1Cl [Example 179, 7-[4-(benzylsulfonyl)piperazin-1-yl]-2-(5-chloro-2,4-dimethoxyphenyl)-imidazo[1,2-a]pyridine]	1.6	1.8	1.6	1.8	2.1	0.0322
COc1cc(OC)c(-c2cn3ccc(N4CCN(S(=O)(=O)N(C)C)CC4)nc3n2)cc1Cl [Example 180, 4-[2-(5-chloro-2,4-dimethoxyphenyl)imidazo[1,2-a]pyrimidin-7-yl]-N,N-dimethylpiperazine-1-sulfonamide]	1.5	2.6	1.6	1.7	1.1	0.0241
COc1cc(OC)c(-c2cn3ccc(N4CCC(NS(=O)(=O)N(C)C)CC4)cc3n2)cc1Cl [Example 181, N-{1-[2-(5-Chloro-2,4-dimethoxyphenyl)imidazo[1,2-a]pyridin-7-yl]piperidin-4-yl}N,N-dimethylsulfonamide]	1.6	0.38	1.5	0.35	0.76	0.0139
COc1cc(OC)c(-c2cn3ccc(N4CCC(N5CCCS5(=O)=O)CC4)cc3n2)cc1Cl [Example 182, 2-{1-[2-(5-chloro-2,4-dimethoxyphenyl)imidazo[1,2-a]pyridin-7-yl]piperidin-4-yl}isothiazolidine 1,1-dioxide]	1.9	2.6	1.5	1.8	1.7	0.00697
COC(=O)Nc1ccn2cc(-c3cc(Cl)c(OC)cc3OC)nc2c1 [Example 183, methyl [2-(5-chloro-2,4-dimethoxyphenyl)imidazo[1,2-a]pyridin-7-yl]-carbamate]	2.1	1.8	1.9	2	1.8	0.0241
COc1cc(OC)c(-c2cn3ccc(N4CCCN(C(=O)OC(C)(C)C)CC4)cc3n2)cc1Cl [Example 184, tert-butyl 4-[2-(5-chloro-2,4-dimethoxyphenyl)imidazo[1,2-a]pyridin-7-yl]-1,4-diazepane-1-carboxylate]	5.7	4.9	2.5	2.2	3.8	0.0285
COc1cc(OC)c(-c2cn3ccc(N4CCC(NS(=O)(=O)CC(C)C)CC4)cc3n2)cc1Cl [Example 185, N-{1-[2-(5-Chloro-2,4-dimethoxyphenyl)imidazo[1,2-a]pyridin-7-yl]piperidin-4-yl}-2-methylpropane-1-sulfonamide]	1.1	1.9	1.4	2	1.6	0.0127
COc1cc(OCCCN(C)C)c(-c2cn3ccc(N4CCNCC4)nc3n2)cc1Cl [Example 186, 3-(4-chloro-5-methoxy-2-(7-(piperazin-1-yl)imidazo[1,2-a]pyrimidin-2-yl)phenoxy)-N,N-dimethylpropan-1-amine]	17	35	12	7.3	22	0.0619
COc1cc(OC)c(-c2cn3ccc(N4CCCN(S(=O)(=O)C5CC5)CC4)cc3n2)cc1Cl [Example 187, 2-(5-chloro-2,4-dimethoxyphenyl)-7-[4-(cyclopropylsulfonyl)-1,4-diazepan-1-yl]imidazo[1,2-a]pyridine]	1.9	5	1.4	2.1	2.1	0.00574
COc1cc(OC)c(-c2cn3ccc(N4CCCN(S(=O)(=O)C(F)(F)F)CC4)cc3n2)cc1Cl [Example 188, 2-(5-chloro-2,4-dimethoxyphenyl)-7-{4-[(trifluoromethyl)sulfonyl]-1,4-diazepan-1-yl}imidazo[1,2-a]pyridine]	1.6	1.4	1.6	1.5	1.6	0.0369
COc1cc(OC)c(-c2cn3ccc(N4CCCNCC4)cc3n2)cc1Cl [Example 189, 2-(5-chloro-2,4-dimethoxyphenyl)-7-(1,4-diazepan-1-yl)imidazo[1,2-a]pyridine]	3	6.3	2.9	2	3.5	0.00433
CCS(=O)(=O)N1CCN(c2ccn3cc(-c4cc(Cl)c(OC)cc4OC)nc3n2)CC1 [Example 190, 2-(5-chloro-2,4-dimethoxyphenyl)-7-[4-(ethylsulfonyl)piperazin-1-yl]imidazo[1,2-a]pyrimidine]	2.3	4.5	1	2.7	1.8	0.0306
